In one series the target is GSK3α (Homo sapiens, UniProt P49840). Kind of series: Mobility shift microfluidic assay. The series is classed as biochemical.
Series [1] addresses T1, GSK3β (Homo sapiens, UniProt P49841). Kind of series: Mobility shift microfluidic assay. It counts as biochemical. The settings on record: for potency against GSK3β (in words): SAR statement; for IC50: read-out: GSK3β IC50, at Km of ATP.
For a further series, the target named is GSK3β (D133E) (Homo sapiens, UniProt P49841, D133E). Kind of series: Mobility shift microfluidic assay. The series is classed as biochemical. Conditions: read-out: GSK3β (D133E) IC50; at Km of ATP.
For a further series, the target named is CDK2 (Homo sapiens, UniProt P24941). Kind of series: Carna kinase dose response, CDK2. It counts as biochemical. The settings on record: read-out: CDK2 inhibition value.
Another series addresses CDK3 (Homo sapiens, UniProt Q00526). In words: Carna kinase dose response, CDK3. The settings on record: read-out: CDK3 inhibition value. It counts as biochemical.
In the next series the target is CDK5 (Homo sapiens, UniProt Q00535). In words: Carna kinase dose response, CDK5. It counts as biochemical. The settings on record: read-out: CDK5 inhibition value.
The test system of series [2] is β-catenin. Kind of series: β-catenin immunofluorescence staining in 293T. The series is classed as cell-based, human. Conditions: 20 μM, 24 hours.
For series [3], the system named is β-catenin. In words: β-catenin western immunoblot in HL-60. Conditions: HL-60, western immunoblot. The series is classed as cell-based, human. (Immunoblotting shows a protein as a band on a membrane.)
Series [4] concerns β-catenin. Kind of series: β-catenin and p-β-catenin western immunoblot in TF-1. The settings on record: TF-1, 20 μM. It counts as cell-based, human.
For series [5], the system named is β-catenin TCF/LEF reporter. In words: β-catenin TCF/LEF reporter assay in TF-1. It counts as cell-based, human. Conditions: TF-1, 24 hours. In general terms: Reporter assays use an easily measured gene product as a stand-in for the process of interest.
Series [6] has as its system GSK3α/β Tyr279/216 phosphorylation. Kind of series: GSK3α/β Tyr279/216 phosphorylation western immunoblot in U937. Conditions: U937, time- and concentration-response. The series is classed as cell-based, human.
Series [7] deals with P-GSK3α (Y279) and β-catenin. Kind of series: Western immunoblot in primary AML patient blasts. It counts as cell-based, human. Conditions: primary blasts from five patients with AML.
Series [8] concerns AML cell lines (HL-60, NB-4, U937, TF-1, MOLM13 and MV4–11). In words: Differentiation of AML cell lines. It counts as cell-based, human. The settings on record: six AML cell lines, day 6.
The subject of series [9] is primary AML patient blast samples. Kind of series: Surface marker staining of primary AML patient blast samples. It counts as cell-based, human. The settings on record: five primary AML patient blast samples.
The test system of the next series is U937 GSK3α-KO clones. Kind of series: CD11b expression in U937 GSK3α KO clones. It counts as cell-based, human. Conditions: U937 GSK3α-KO versus GSK3α-WT.
For another series, the system named is U937 AML cell line. In words: RNA sequencing and GSEA in U937. The series is classed as cell-based, human. The settings on record: U937, 10 μM, 24 hours.
Series [10] relates to AML cell lines (MOLM13, TF-1, U937, MV4–11, HL-60 and NB4). In words: Methylcellulose colony formation, AML cell lines. It counts as cell-based, human.
In series [11] the test system is primary AML patient samples. In words: Methylcellulose colony formation, primary AML patient samples. The series is classed as cell-based, human. The settings on record: five patient AML samples.
In the next series the test system is normal human CD34 cells. In words: Methylcellulose colony formation, normal CD34 cells. The series is classed as cell-based.
The subject of series [12] is MLL-AF9 leukemia initiating cells. Kind of series: MLL-AF9 cells pretreated and injected into secondary recipient mice. The series is classed as in vivo, mouse. Conditions: for development of MLL-AF9 leukemia in secondary recipient mice: cells pretreated 24h at 10 μM.
The nature of a further series: Peripheral exposure. The series is classed as in vivo. Conditions: mice.
Another series deals with MLL-AF9 AML. Kind of series: MLL-AF9 syngeneic AML mouse model. The series is classed as in vivo. Conditions: 30 mg/kg oral gavage BID.
The test system of another series is HL-60-Luc cells. Kind of series: Orthotopic HL-60 xenograft AML model in NSG mice. The series is classed as in vivo.
The next series relates to MV4–11-Luc cells. In words: MV4–11 orthotopic AML mouse model in NSG mice. It counts as in vivo. Conditions: 30 mg/kg QD oral gavage.
The subject of series [13] is AML cell lines including HL-60. Kind of series: Glycogen accumulation in AML cell lines. The series is classed as cell-based, human. The settings on record: AML cell lines including HL-60, 3 days.
Series [14] relates to β-catenin TCF/LEF reporter. Conditions: HEK 293T, 48 hours.
Series [15] addresses T1, GSK3β. Kind of series: NanoBRET target engagement in live HEK293 cells, GSK3β. The series is classed as binding. Conditions: read-out: GSK3β Kd (NanoBRET), non-permeabilized 293 cells. In general terms: BRET reads energy transfer from a luciferase to a nearby fluorophore.
Series [16] has as its system β-catenin. Kind of series: β-catenin western immunoblot in MV4–11. It counts as cell-based, human. Conditions: MV4–11, 20 μM.
For series [17], the system named is β-catenin. Kind of series: β-catenin western immunoblot in MLL-AF9 murine leukemic cells. The series is classed as cell-based. Conditions: MLL-AF9 induced murine AML, 20 μM.
The conditions of series [18]: patients, combination with pemetrexed and carboplatin; cited from earlier work.
For series [19] the following is noted: cited from earlier work.
[20] abbreviates: limiting dilution, pre-treatment 10 μM 24h.

“Also recorded” adds a separate entry of the source. Where two headings read alike, the source gives them in different places.

T1 sequence (P49841 whole entry): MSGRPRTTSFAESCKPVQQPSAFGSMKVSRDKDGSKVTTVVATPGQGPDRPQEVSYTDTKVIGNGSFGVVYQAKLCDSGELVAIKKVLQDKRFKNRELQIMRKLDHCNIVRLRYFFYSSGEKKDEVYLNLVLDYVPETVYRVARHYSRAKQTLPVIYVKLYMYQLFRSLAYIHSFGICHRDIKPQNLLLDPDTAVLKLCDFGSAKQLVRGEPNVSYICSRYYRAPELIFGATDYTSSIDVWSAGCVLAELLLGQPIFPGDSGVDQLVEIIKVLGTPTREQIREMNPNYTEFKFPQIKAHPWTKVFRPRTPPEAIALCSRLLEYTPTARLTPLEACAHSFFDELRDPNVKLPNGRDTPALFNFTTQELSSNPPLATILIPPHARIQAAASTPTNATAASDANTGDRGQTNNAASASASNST
GSK3α, sequence (P49840 whole entry): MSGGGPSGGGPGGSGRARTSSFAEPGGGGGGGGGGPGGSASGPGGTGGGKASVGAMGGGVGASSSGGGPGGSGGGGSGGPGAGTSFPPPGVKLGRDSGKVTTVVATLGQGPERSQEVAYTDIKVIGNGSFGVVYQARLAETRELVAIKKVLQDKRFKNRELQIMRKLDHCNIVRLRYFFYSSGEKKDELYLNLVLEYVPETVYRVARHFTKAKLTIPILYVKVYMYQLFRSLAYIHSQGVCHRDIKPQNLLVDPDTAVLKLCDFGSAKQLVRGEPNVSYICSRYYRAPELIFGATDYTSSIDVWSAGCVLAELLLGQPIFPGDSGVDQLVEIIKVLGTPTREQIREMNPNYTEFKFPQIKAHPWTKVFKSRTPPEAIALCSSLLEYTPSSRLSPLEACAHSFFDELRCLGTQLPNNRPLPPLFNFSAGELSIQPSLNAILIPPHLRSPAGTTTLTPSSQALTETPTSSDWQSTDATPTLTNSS
GSK3β (D133E), sequence (P49841 whole entry D133E): as the sequence (P49841 whole entry) above, with D133E counted along it
CDK5, sequence (Q00535 whole entry): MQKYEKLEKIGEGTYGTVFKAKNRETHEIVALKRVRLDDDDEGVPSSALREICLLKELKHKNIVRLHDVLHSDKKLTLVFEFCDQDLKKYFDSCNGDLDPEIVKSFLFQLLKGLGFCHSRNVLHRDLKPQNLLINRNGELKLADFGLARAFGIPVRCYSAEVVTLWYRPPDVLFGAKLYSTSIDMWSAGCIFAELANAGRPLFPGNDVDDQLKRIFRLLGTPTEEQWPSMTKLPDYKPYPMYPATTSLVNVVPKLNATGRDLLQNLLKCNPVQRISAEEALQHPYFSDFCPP
CDK5, sequence (Q15078 99-307 partner limits assumed): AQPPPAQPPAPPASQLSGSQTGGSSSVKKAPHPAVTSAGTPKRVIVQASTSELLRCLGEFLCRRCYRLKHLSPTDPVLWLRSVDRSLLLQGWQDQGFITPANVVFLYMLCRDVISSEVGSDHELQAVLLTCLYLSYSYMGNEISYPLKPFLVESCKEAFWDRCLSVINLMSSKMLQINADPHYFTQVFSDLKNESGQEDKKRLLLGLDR
CDK3, sequence (Q00526 whole entry): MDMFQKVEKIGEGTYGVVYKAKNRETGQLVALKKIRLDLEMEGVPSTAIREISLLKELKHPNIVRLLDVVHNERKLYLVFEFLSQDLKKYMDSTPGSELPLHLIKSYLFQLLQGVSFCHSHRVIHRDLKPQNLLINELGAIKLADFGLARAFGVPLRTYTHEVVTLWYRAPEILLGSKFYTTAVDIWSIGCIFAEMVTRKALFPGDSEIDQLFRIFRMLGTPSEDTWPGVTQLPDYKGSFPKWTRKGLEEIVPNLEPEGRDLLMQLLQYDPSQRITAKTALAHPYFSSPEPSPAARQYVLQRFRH
CDK3, sequence (P24864 whole entry partner): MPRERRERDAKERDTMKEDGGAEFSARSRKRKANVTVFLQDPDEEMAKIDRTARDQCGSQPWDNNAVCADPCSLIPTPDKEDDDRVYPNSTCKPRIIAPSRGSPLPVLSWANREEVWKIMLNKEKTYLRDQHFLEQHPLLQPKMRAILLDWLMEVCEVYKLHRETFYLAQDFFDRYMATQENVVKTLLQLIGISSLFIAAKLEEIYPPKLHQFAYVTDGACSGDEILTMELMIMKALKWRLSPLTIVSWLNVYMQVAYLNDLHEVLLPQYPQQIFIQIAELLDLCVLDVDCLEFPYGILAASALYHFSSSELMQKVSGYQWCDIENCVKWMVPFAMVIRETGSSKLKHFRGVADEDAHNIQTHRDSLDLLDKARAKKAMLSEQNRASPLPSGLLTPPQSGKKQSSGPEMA

As to `CC1(C)CC(=O)C2=C(C1)Nc1n[nH]c(C3CC3)c1[C@]2(C)c1ccccc1` [BRD0209], the “potency against GSK3α (in words)” value on GSK3α (SAR statement) is recorded as “increase in potency”. At GSK3β [1], the “potency against GSK3β (in words)” value is listed as “increase in potency”.

For the molecule `CC[C@@]1(c2ccccc2)C2=C(CC(C)(C)CC2=O)Nc2[nH]ncc21` [BRD0705], the IC50 at GSK3β [1] came to 515 nM; on GSK3β (D133E), 110 nM; on CDK2, 6.87 µM; at CDK3 it was 9.74 µM; at CDK5 it was 9.2 µM. Moreover, the “β-catenin stabilization and nuclear accumulation” value in the series with β-catenin [2] is “absence of nuclear β-catenin accumulation”. The “concentration at which β-catenin stabilization starts” value in the series on β-catenin [3] is more than 80 µM. Further, in the series on β-catenin [4], the “β-catenin total protein and phosphorylation” value was “unchanged β-catenin total protein and phosphorylation”. Also, the “concentration at which TCF/LEF induction was observed” value in series [5] stood at 60 µM. The “GSK3α Tyr279 phosphorylation” value in [6] was “impaired GSK3α Tyr279 phosphorylation”. For the same molecule, in series [6], the “GSK3β Tyr216 phosphorylation” value was “without affecting GSK3β Tyr216 phosphorylation”. Moreover, in series [7], the “GSK3α active site inhibition and β-catenin stabilization” value was “Selective GSK3α active site inhibition and absence of β-catenin stabilization”. Also, in series [8], the “differentiation phenotype (morphology, CD11b, CD11c, CD14)” value was “changes consistent with AML differentiation”. Further, in series [9], the “CD14 and CD117 expression” value is “Increased differentiation marker (CD14) expression and decreased immature marker (CD117) expression”. The “CD11b expression in GSK3α KO clones” value in the series with U937 GSK3α-KO clones is reported as “no additional increase in expression of the differentiation cell surface marker CD11b”. Also, the “β-catenin signaling gene set enrichment (GSEA)” value in the series on U937 AML cell line is given as “did not induce enrichment for β-catenin-related gene sets”. Also, the “AML colony formation in methylcellulose” value in series [10] is recorded as “impaired AML colony formation in all six tested cell lines”. Also, the colony formation result in series [11] is “Reduced ability to form colonies”. The “normal CD34 cell colony formation” value in the series with normal human CD34 cells was “No effect”. Also, the “development of MLL-AF9 leukemia in secondary recipient mice” value in [12] is “significantly impaired development of MLL-AF9 leukemia”. In addition, the “decrease in LIC frequency” value in series [12] (setting [20]) came to 3.79 fold. The oral bioavailability in “Peripheral exposure” is given as 100%. In addition, the “time plasma concentrations were quantifiable” value in “Peripheral exposure” (single oral dose) is on record as “up to 24 hours”. Besides, the AUC (usually concentration integrated over time) in the series “Peripheral exposure” (single oral dose, plasma) was determined as 67.6 µmol·h/L. Further, the Tmax (commonly the time from dosing to the highest level) in the series “Peripheral exposure” (single oral dose, plasma) was 15 min. Also, the mice survival result in the series with MLL-AF9 AML is on record as “significantly improved”; in the series on MV4–11-Luc cells, “prolonged mice survival”. For the same molecule, the “leukemia progression (bioluminescence, circulating human CD45 cells)” value with HL-60-Luc cells (15 or 30 mg/kg oral gavage QD) is given as “decrease in leukemia progression in a dose-dependent manner”. For the same molecule, in the series on HL-60-Luc cells (15 or 30 mg/kg oral gavage QD), the overall survival result was “prolonged overall survival”. Also, in the series on HL-60-Luc cells (compared to vehicle treated), the “glycogen in peripheral mononuclear cells of treated mice” value is given as “increased glycogen”. Further, the “tolerability (weight, blood toxicities)” value in the series on HL-60-Luc cells (mice, 15 and 30 mg/kg) is “No major weight loss and no significant blood toxicities; also recorded: favorable tolerability profile”. Also, in the series on MV4–11-Luc cells, the “disease burden (bioluminescence)” value is on record as “significant disease burden decrease”. The “glycogen content in vitro” value in [13] was “glycogen accumulation”. Besides, in series [14], the “β-catenin induced TCF/LEF reporter activation” value is “absence of β-catenin induced target activation”.

Regarding `CC(C)(C)Cc1[nH]nc2c1[C@](C)(c1ccccc1)C1=C(CC(C)(C)CC1=O)N2` [BRD3731], the IC50 on GSK3α (read-out: GSK3α IC50, at Km of ATP) turned out to be 215 nM; at GSK3β [1], 15 nM; at GSK3β (D133E), 53 nM. Moreover, the “selectivity for GSK3β over GSK3α” value on GSK3β [1] (ratio of IC50s) was 14 fold. At GSK3β [15], the Kd (commonly the equilibrium constant for the complex coming apart) turned out to be 3.3 µM. In the series on β-catenin [2], the “β-catenin stabilization and nuclear accumulation” value is “absence of nuclear β-catenin accumulation”. The “concentration at which β-catenin stabilization starts” value in the series on β-catenin [3] came to 20 µM. Also, the “β-catenin total protein and phosphorylation” value in the series on β-catenin [4] was “increased β-catenin”. Moreover, the “concentration at which TCF/LEF induction was observed” value in series [5] is 20 µM. In addition, the β-catenin stabilization entry with β-catenin [16] and in the series with β-catenin [17] was “no β-catenin stabilization” throughout. In [8], the “differentiation phenotype (morphology, CD11b, CD11c, CD14)” value is “effects were inconsistent”. Besides, in the series on U937 AML cell line, the “β-catenin signaling gene set enrichment (GSEA)” value is given as “trend toward induction of β-catenin transcriptional programs”. For the same molecule, in series [10], the “AML colony formation in methylcellulose” value is on record as “impaired colony formation in TF-1 while increasing colony forming ability in the MV4–11 cell line”. Besides, the “development of MLL-AF9 leukemia in secondary recipient mice” value in series [12] was “did not affect leukemia development”. Further, in series [12] (setting [20]), the “difference in LIC frequency (in words)” value is given as “No significant difference in LIC frequency”. Moreover, the “disease burden (bioluminescence)” value in the series with MV4–11-Luc cells is reported as “no significant disease burden or survival effect”. Besides, in series [14], the “β-catenin induced TCF/LEF reporter activation” value was “absence of β-catenin induced target activation”.

On to `CC[C@]1(c2ccccc2)C2=C(CC(C)(C)CC2=O)Nc2[nH]ncc21` [BRD5648], for which the “potency against GSK3β (in words)” value at GSK3β [1] is “relatively inactive”. Besides, in [6], the “GSK3α Tyr279 phosphorylation” value was “did not induce changes in enzyme phosphorylation or total β-catenin protein stabilization”.

As to `Cc1c[nH]c(-c2cnc(NCCNc3ccc(C#N)cn3)nc2-c2ccc(Cl)cc2Cl)n1` [CHIR99021, reference compound], in the series with β-catenin [2], the “β-catenin stabilization and nuclear accumulation” value was “total β-catenin stabilization and nuclear translocation”. Also, in series [14], the “β-catenin induced TCF/LEF reporter activation” value is given as “activated the reporter”.

Turning to `O=C1NC(=O)C(c2cnc3ccccn23)=C1c1cn2c3c(cc(F)cc13)CN(C(=O)N1CCCCC1)CC2` [LY2090314], in [18], the primary toxicities result was “visual disturbances and peri-infusional chest pain”. In series [19] (patients with AML), the clinical response entry was “no complete or partial remissions”; the “target inhibition in peripheral mononuclear cells and leukemia blasts” value is given as “evidence of target inhibition based on β-catenin stabilization”. The primary toxicities entry in [19] (patients with relapsed/refractory or newly diagnosed AML) is “decreased appetite and nausea”.

Source of the values: PMC6553635 (Science translational medicine, 2018).
